According to patent publication US20250197420A1, “MACROCYCLIC COMPOUNDS, COMPOSITIONS, AND METHODS OF USING THEREOF” (Sionna Therapeutics Inc., priority 2022, published 2025):

What was measured:
[1] = tested on: Primary human bronchial epithelial cells from a ΔF508 homozygous CF donor (CF-HBE cells); assay: TECC24 recording of CFTR-mediated transepithelial chloride transport, AUC fold over benchmark VX-809 @10 μM; assay type: cell-based; conditions: 48 hours incubation, AUC of forskolin-stimulated IEQ
Method in brief: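 CF-HBE cells on inserts were treated with compound for 48 h at 36.5 °C, then recorded in current-clamp with benzamil 10 μM, forskolin 10 μM, and finally CFTR inhibitor-172 20 μM in pH 7.4 Hepes saline. Equivalent Cl− current AUC between forskolin and inhibitor addition is expressed as a ratio to VX-809 AUC: A <3, B 3–6, C 6–20.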

[2] = target: T1, Purified recombinant NBD1 (Homo sapiens, UniProt P13569); assay: Aggregation analysis using differential static light scattering (DSLS): thermal stability of NBD1; assay type: binding; conditions: NBD1 0.2 mg/ml; Tagg of compound well minus average Tagg of DMSO control wells
T1 construct: Purified recombinant NBD1 was produced using previously described methods; made in house
T1 sequence (P13569 423-646 limits assumed): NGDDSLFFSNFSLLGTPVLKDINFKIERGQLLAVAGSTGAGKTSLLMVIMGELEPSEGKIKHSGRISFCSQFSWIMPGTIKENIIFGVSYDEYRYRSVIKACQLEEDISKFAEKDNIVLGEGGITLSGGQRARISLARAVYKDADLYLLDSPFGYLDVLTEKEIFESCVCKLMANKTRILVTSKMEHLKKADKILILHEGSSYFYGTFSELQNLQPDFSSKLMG
Method in brief: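 Recombinant NBD1 at 0.2 mg/ml in Tris/NaCl/MgCl2 buffer with 2 mM ATP, 2 mM DTT, 1% glycerol, pH 7.6, was incubated with compound and heated at 1 °C/min to 70 °C while static light scattering was monitored. Tagg was taken from the curve inflection point and reported as ΔTagg relative to DMSO controls.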

For `CN1CC(C)(C)CCC(C)(c2cccc(CCC(=O)O)c2)c2nc(n(C)n2)-c2cc(ccc2F)Oc2c(F)cc3[nH]ccc3c2CCC1=O` (single isomer, unassigned) [Compound 75B, 3-[3-(22,28-difluoro-3,6,9,9,11-pentamethyl-12-oxo-24-oxa-3,4,11,19,30-pentazapentacyclo[23.3.1.12,5.015,23.016,20]triaconta-1(29),2(30),4,15,17,20,22,25,27-nonaen-6-yl)phenyl]propanoic acid], the “TECC (test agent AUC divided by VX-809 AUC)” value [1] was “A (a TECC value less than 3 is marked “A”)” and the “DSLS (ΔTagg)” value [2] was “A (an ΔTagg value less than or equal to 5 °C is marked “A”)”.

In the case of `[2H]C([2H])([2H])n1nc2nc1-c1cc(ccc1F)Oc1c(F)cc3[nH]ccc3c1CCC(=O)NCC(C)(C)CCCC2(C)c1cccc(CCC(=O)O)c1` (single isomer, unassigned) [Compound 76A, 3-[3-[23,29-difluoro-6,10,10-trimethyl-13-oxo-3-(trideuteriomethyl)-25-oxa-3,4,12,20,31-pentazapentacyclo[24.3.1.12,5.016,24.017,21]hentriaconta-1(30),2(31),4,16,18,21,23,26,28-nonaen-6-yl]phenyl]propanoic acid], the “TECC (test agent AUC divided by VX-809 AUC)” value [1] is reported as “A (a TECC value less than 3 is marked “A”)” and the “DSLS (ΔTagg)” value [2] is reported as “A (an ΔTagg value less than or equal to 5 °C is marked “A”)”.

For `[2H]C([2H])([2H])n1nc2nc1-c1cc(ccc1F)Oc1c(F)cc3[nH]ccc3c1CCC(=O)NCC(C)(C)CCCC2(C)c1cccc(CCC(=O)O)c1` (single isomer, unassigned) [Compound 76B, 3-[3-[23,29-difluoro-6,10,10-trimethyl-13-oxo-3-(trideuteriomethyl)-25-oxa-3,4,12,20,31-pentazapentacyclo[24.3.1.12,5.016,24.017,21]hentriaconta-1(30),2(31),4,16,18,21,23,26,28-nonaen-6-yl]phenyl]propanoic acid], the “TECC (test agent AUC divided by VX-809 AUC)” value [1] was “C (a value between 6 and 20 is marked “C”)” and the “DSLS (ΔTagg)” value [2] was “C (a value greater than 10 °C and less than or equal to 25 °C is marked “C”)”.

`[2H]C([2H])([2H])n1nc2nc1-c1cc(ccc1F)Oc1c(F)cc3[nH]ccc3c1CCC(=O)N(C)CC(C)(C)CCCC2(C)c1cccc(CCC(=O)O)c1` (single isomer, unassigned) [Compound 77A, 3-[3-[23,29-difluoro-6,10,10,12-tetramethyl-13-oxo-3-(trideuteriomethyl)-25-oxa-3,4,12,20,31-pentazapentacyclo[24.3.1.12,5.016,24.017,21]-hentriaconta-1(30),2(31),4,16,18,21,23,26,28-nonaen-6-yl]phenyl]propanoic acid] was tested, and the “TECC (test agent AUC divided by VX-809 AUC)” value [1] was “C (a value between 6 and 20 is marked “C”)” and the “DSLS (ΔTagg)” value [2] was “C (a value greater than 10 °C and less than or equal to 25 °C is marked “C”)”.

In the case of `[2H]C([2H])([2H])n1nc2nc1-c1cc(ccc1F)Oc1c(F)cc3[nH]ccc3c1CCC(=O)N(C)CC(C)(C)CCCC2(C)c1cccc(CCC(=O)O)c1` (single isomer, unassigned) [Compound 77B, 3-[3-[23,29-difluoro-6,10,10,12-tetramethyl-13-oxo-3-(trideuteriomethyl)-25-oxa-3,4,12,20,31-pentazapentacyclo[24.3.1.12,5.016,24.017,21]-hentriaconta-1(30),2(31),4,16,18,21,23,26,28-nonaen-6-yl]phenyl]propanoic acid], the “TECC (test agent AUC divided by VX-809 AUC)” value [1] is reported as “A (a TECC value less than 3 is marked “A”)” and the “DSLS (ΔTagg)” value [2] is reported as “A (an ΔTagg value less than or equal to 5 °C is marked “A”)”.

For `[2H]C([2H])([2H])n1nc2nc1-c1cc(ccc1F)Oc1c(F)cc3[nH]ccc3c1CCC(=O)N(C)CC(C)(C)CCCC2(C)c1cccc(CCC(=O)NS(C)(=O)=O)c1` (single isomer, unassigned) [Compound 79A, 3-[3-[23,29-difluoro-6,10,10,12-tetramethyl-13-oxo-3-(trideuteriomethyl)-25-oxa-3,4,12,20,31-pentazapentacyclo[24.3.1.12,5.016,24.017,21]hentriaconta-1(30),2(31),4,16,18,21,23,26,28-nonaen-6-yl]phenyl]-N-methylsulfonyl-propanamide], the “TECC (test agent AUC divided by VX-809 AUC)” value [1] was “A (a TECC value less than 3 is marked “A”)” and the “DSLS (ΔTagg)” value [2] was “A (an ΔTagg value less than or equal to 5 °C is marked “A”)”.

With `[2H]C([2H])([2H])n1nc2nc1-c1cc(ccc1F)Oc1c(F)cc3[nH]ccc3c1CCC(=O)N(C)CC(C)(C)CCCC2(C)c1cccc(CCC(=O)NS(C)(=O)=O)c1` (single isomer, unassigned) [Compound 79B, 3-[3-[23,29-difluoro-6,10,10,12-tetramethyl-13-oxo-3-(trideuteriomethyl)-25-oxa-3,4,12,20,31-pentazapentacyclo[24.3.1.12,5.016,24.017,21]hentriaconta-1(30),2(31),4,16,18,21,23,26,28-nonaen-6-yl]phenyl]-N-methylsulfonyl-propanamide] the “TECC (test agent AUC divided by VX-809 AUC)” value [1] was “C (a value between 6 and 20 is marked “C”)” and the “DSLS (ΔTagg)” value [2] was “C (a value greater than 10 °C and less than or equal to 25 °C is marked “C”)”.

`CC1(C)CCCCC(C)(c2cccc(CCC(=O)O)c2)c2cnc([nH]2)-c2cc(ccc2F)Oc2c(F)cc3[nH]ccc3c2COC(=O)N1` (single isomer, unassigned) [Compound 93A, 3-[3-(23,29-difluoro-6,11,11-trimethyl-13-oxo-14,25-dioxa-3,12,20,31-tetrazapentacyclo[24.3.1.12,5.016,24.017,21]hentriaconta-1(30),2,4,16,18,21,23,26,28-nonaen-6-yl)phenyl]propanoic acid] was tested, and the “TECC (test agent AUC divided by VX-809 AUC)” value [1] was “B (a value between 3 and 6 is marked “B”)” and the “DSLS (ΔTagg)” value [2] was “A (an ΔTagg value less than or equal to 5 °C is marked “A”)”.

With `CC1(C)CCCCC(C)(c2cccc(CCC(=O)O)c2)c2cnc([nH]2)-c2cc(ccc2F)Oc2c(F)cc3[nH]ccc3c2COC(=O)N1` (single isomer, unassigned) [Compound 93B, 3-[3-(23,29-difluoro-6,11,11-trimethyl-13-oxo-14,25-dioxa-3,12,20,31-tetrazapentacyclo[24.3.1.12,5.016,24.017,21]hentriaconta-1(30),2,4,16,18,21,23,26,28-nonaen-6-yl)phenyl]propanoic acid] the “TECC (test agent AUC divided by VX-809 AUC)” value [1] was “A (a TECC value less than 3 is marked “A”)” and the “DSLS (ΔTagg)” value [2] was “C (a value greater than 10 °C and less than or equal to 25 °C is marked “C”)”.

`CC1(C)CCCC(c2cccc(CCC(=O)O)c2)n2ccc(n2)-c2cc(ccc2F)Oc2c(F)cc3[nH]ccc3c2CCOC(=O)N1` (single isomer, unassigned) [Compound 95A, 3-[3-(23,29-difluoro-10,10-dimethyl-12-oxo-13,25-dioxa-5,11,20,31-tetrazapentacyclo-[24.3.1.12,5.016,24.017,21]hentriaconta-1(30),2(31),3,16(24),17(21),18,22,26,28-nonaen-6-yl)phenyl]propanoic acid] was tested, and the “TECC (test agent AUC divided by VX-809 AUC)” value [1] was “B (a value between 3 and 6 is marked “B”)” and the “DSLS (ΔTagg)” value [2] was “B (a value above 5 °C and less than or equal to 10 °C is marked “B”)”.

With `CC1(C)CCCC(c2cccc(CCC(=O)O)c2)n2ccc(n2)-c2cc(ccc2F)Oc2c(F)cc3[nH]ccc3c2CCOC(=O)N1` (single isomer, unassigned) [Compound 95B, 3-[3-(23,29-difluoro-10,10-dimethyl-12-oxo-13,25-dioxa-5,11,20,31-tetrazapentacyclo-[24.3.1.12,5.016,24.017,21]hentriaconta-1(30),2(31),3,16(24),17(21),18,22,26,28-nonaen-6-yl)phenyl]propanoic acid] the “TECC (test agent AUC divided by VX-809 AUC)” value [1] was “B (a value between 3 and 6 is marked “B”)” and the “DSLS (ΔTagg)” value [2] was “B (a value above 5 °C and less than or equal to 10 °C is marked “B”)”.

For `CC1(C)CCOCC(c2cccc(CCC(=O)O)c2)n2ccc(n2)-c2cc(ccc2F)Oc2c(F)cc3[nH]ccc3c2COC(=O)N1` (single isomer, unassigned) [Compound 96A, 3-[3-(23,29-difluoro-11,11-dimethyl-13-oxo-8,14,25-trioxa-5,12,20,31-tetrazapentacyclo[24.3.1.12,5.016,24.017,21]hentriaconta-1(30),2(31),3,16,18,21,23,26,28-nonaen-6-yl)phenyl]propanoic acid], the “TECC (test agent AUC divided by VX-809 AUC)” value [1] was “B (a value between 3 and 6 is marked “B”)” and the “DSLS (ΔTagg)” value [2] was “C (a value greater than 10 °C and less than or equal to 25 °C is marked “C”)”.

In the case of `CC1(C)CCOCC(c2cccc(CCC(=O)O)c2)n2ccc(n2)-c2cc(ccc2F)Oc2c(F)cc3[nH]ccc3c2COC(=O)N1` (single isomer, unassigned) [Compound 96B, 3-[3-(23,29-difluoro-11,11-dimethyl-13-oxo-8,14,25-trioxa-5,12,20,31-tetrazapentacyclo[24.3.1.12,5.016,24.017,21]hentriaconta-1(30),2(31),3,16,18,21,23,26,28-nonaen-6-yl)phenyl]propanoic acid], the “TECC (test agent AUC divided by VX-809 AUC)” value [1] is reported as “C (a value between 6 and 20 is marked “C”)” and the “DSLS (ΔTagg)” value [2] is reported as “C (a value greater than 10 °C and less than or equal to 25 °C is marked “C”)”.

With `Cn1nc2nc1-c1cc(ccc1F)Oc1c(F)cc3[nH]ccc3c1COC(=O)NC(C)(C)CCCCC2c1cccc(CCC(=O)O)c1` (single isomer, unassigned) [Compound 97A, 3-[3-(23,29-difluoro-3,11,11-trimethyl-13-oxo-14,25-dioxa-3,4,12,20,31-pentazapentacyclo-[24.3.1.12,5.016,24.017,21]hentriaconta-1(30),2(31),4,16,18,21,23,26,28-nonaen-6-yl)phenyl]propanoic acid] the “TECC (test agent AUC divided by VX-809 AUC)” value [1] was “B (a value between 3 and 6 is marked “B”)” and the “DSLS (ΔTagg)” value [2] was “C (a value greater than 10 °C and less than or equal to 25 °C is marked “C”)”.
